From US12448369B2 (Edgewise Therapeutics, Inc., priority 2023, dated 2025)

What was measured:
[1] = target: T1, Porcine ventricle myofibrils (ventricular myosin ATPase) (Sus scrofa, UniProt P79293); assay: Myofibril ATPase assay, porcine ventricle myofibrils; type: biochemical, porcine (Yucatan minipigs); details: porcine ventricle myofibrils
T1 construct: Myofibrils from porcine cardiac muscle was isolated from the left ventricle of Yucatan minipigs; tissue Exemplar Genetics; host or cells: left ventricle of Yucatan minipigs, myofibrils prepared in house
T1 sequence (P79293 whole entry): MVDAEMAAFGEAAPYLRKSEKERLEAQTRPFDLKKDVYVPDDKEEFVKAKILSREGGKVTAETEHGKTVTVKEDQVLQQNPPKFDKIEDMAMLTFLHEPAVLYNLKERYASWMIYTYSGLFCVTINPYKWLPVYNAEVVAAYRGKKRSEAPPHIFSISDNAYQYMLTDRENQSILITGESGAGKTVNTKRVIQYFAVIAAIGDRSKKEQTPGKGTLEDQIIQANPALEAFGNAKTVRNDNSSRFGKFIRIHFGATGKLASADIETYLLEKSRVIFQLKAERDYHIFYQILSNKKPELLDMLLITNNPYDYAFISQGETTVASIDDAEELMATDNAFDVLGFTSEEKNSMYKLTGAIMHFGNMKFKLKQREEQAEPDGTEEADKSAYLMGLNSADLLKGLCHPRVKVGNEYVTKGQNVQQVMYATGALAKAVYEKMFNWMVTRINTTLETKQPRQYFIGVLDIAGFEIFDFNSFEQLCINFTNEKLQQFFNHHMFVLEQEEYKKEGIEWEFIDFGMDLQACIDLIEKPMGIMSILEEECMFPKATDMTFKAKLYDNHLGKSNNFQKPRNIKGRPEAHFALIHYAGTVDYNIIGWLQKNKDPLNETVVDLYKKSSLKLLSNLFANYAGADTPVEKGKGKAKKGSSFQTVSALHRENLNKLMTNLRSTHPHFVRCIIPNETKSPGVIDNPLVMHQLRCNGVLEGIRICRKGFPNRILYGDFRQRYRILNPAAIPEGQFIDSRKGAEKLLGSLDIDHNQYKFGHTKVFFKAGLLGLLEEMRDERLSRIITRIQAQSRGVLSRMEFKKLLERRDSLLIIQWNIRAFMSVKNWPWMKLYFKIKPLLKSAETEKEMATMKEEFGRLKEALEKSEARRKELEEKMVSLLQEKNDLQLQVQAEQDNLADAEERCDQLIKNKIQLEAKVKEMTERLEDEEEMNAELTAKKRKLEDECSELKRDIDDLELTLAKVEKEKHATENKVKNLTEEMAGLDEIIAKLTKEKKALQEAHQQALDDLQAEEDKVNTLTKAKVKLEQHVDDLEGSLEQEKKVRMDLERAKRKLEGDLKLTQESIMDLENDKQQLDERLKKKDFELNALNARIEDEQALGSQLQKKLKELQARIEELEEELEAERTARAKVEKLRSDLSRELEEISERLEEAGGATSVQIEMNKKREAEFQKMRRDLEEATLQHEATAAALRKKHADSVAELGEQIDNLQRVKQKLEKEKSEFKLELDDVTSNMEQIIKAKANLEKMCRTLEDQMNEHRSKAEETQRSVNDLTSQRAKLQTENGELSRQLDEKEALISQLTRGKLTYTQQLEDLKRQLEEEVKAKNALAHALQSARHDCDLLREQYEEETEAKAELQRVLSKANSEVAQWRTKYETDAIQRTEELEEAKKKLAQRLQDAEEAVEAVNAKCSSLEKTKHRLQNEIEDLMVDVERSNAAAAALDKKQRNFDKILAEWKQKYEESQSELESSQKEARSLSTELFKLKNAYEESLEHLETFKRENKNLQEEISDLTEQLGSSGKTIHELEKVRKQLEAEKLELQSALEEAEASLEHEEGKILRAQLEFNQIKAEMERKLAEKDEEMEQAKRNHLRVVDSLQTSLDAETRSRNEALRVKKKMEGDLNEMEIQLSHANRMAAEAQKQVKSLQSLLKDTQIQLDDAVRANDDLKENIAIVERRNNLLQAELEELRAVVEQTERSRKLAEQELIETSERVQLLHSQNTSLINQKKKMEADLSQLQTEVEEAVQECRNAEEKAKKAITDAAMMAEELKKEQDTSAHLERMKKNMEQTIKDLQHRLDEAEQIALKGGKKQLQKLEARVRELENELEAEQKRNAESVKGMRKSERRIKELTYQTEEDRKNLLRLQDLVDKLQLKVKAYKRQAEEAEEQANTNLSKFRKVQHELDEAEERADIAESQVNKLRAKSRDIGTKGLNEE
Outline: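 Myofibrils isolated from Yucatan minipig left ventricle; coupled PK/LDH NADH assay, pCa buffer pH 7.0, kinetic A340 reads over 75 min. Vehicle-normalized slopes fit 4PL; Y75/Y125 derived.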

[2] = system: Porcine atria myofibrils (atrial myosin ATPase); assay: Myofibril ATPase assay, porcine atria myofibrils; type: biochemical; details: porcine atria myofibrils
Outline: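 Coupled PK-LDH reaction links ADP from myosin ATPase to NADH loss, read at 340 nm every 1.5-2 min for 75 min. Slopes (mAU/min) normalized to vehicle-only wells (100%) and fit to a 4-parameter logistic; Y75 is the concentration cutting activity by 25%, Y125 is reported for activators.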

[3] = system: Rabbit Psoas myofibrils (skeletal myosin ATPase); assay: Myofibril ATPase assay, rabbit psoas (skeletal) myofibrils; type: biochemical; details: rabbit psoas myofibrils
Outline: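 Rabbit psoas skeletal myofibrils in PIPES/CaCl2/EGTA pCa buffer, pH 7.0. ATPase rate followed by PK-LDH-coupled NADH loss at 340 nm, read every 1.5–2 min for 75 min. Slopes normalized to vehicle (100%) and fitted to a 4-parameter logistic; values are Y75 (25% inhibition) or Y125 (25% activation) concentrations.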

[4] = Y75 value (75% activity relative to no compound)

| SMILES | Ventricular EC25 ([1]; Y75 value (no ‡ mark)) [nM] | Atrial EC25 ([2]; Y75 value (no ‡ mark)) [nM] | Skeletal EC25 ([3]; Y75 value (no ‡ mark)) [µM] | Ventricular EC25 ([1]; Y75 value) [nM] | Atrial EC25 [2, 4] [nM] | Skeletal EC25 ([3]; Y75 value) [µM] | Skeletal EC25 ([3]; ‡ Y125 value, not a Y75 value (125% activity relative to no compound)) |
| --- | --- | --- | --- | --- | --- | --- | --- |
| C[C@H](NC(=O)C1(c2cc3c(F)c(F)ccc3[nH]c2=O)CC1)c1ncc(C#N)cn1 (single isomer, unassigned) [compound 2550] | 77930 | 1390 | 1.22 |  |  |  |  |
| Cc1nccc2[nH]c(=O)c(CC(=O)N[C@H](C)c3ccc(C#N)cc3F)c(Cl)c12 [compound 151] |  |  |  | 870 | 440 | 0.11 |  |
| Cc1c(CC(=O)N[C@H]2CCc3cc(C#N)cnc32)c(=O)[nH]c2ccc(F)cc12 [compound 1093] | 100000 | 100000 | 100.00 |  |  |  |  |
| Cc1ccccc1[C@H](CO)NC(=O)Cc1c(C)c2c(C)nccc2[nH]c1=O (single isomer, unassigned) [compound 338] |  |  |  | 100000 | 8690 | 27.39 |  |
| Cc1nccc2[nH]c(=O)c(CC(=O)N[C@H]3CCc4cc(F)cc(F)c43)c(C)c12 [compound 501] |  |  |  | 78000 | 76000 | 3.4 |  |
| Cc1cc(C#N)nnc1[C@@H](C)NC(=O)Cc1c(C)c2c(F)c(F)ccc2[nH]c1=O [compound 1135] | 5940 | 590 | 2.90 |  |  |  |  |
| Cc1c(C(F)(F)C(=O)N[C@@H](C)c2ncc(C#N)cc2F)c(=O)[nH]c2cccc(F)c12 (single isomer, unassigned) [compound 2533] | 130 | 130 | 0.06 |  |  |  |  |
| Cc1c(CC(=O)N[C@@H](C)c2ccc(F)cc2F)c(=O)[nH]c2ccc(OC(F)(F)F)nc12 [compound 359] |  |  |  | 100000 | 110 | 0.04 |  |
| Cc1c(CC(=O)N[C@H](C)c2ccc(C#N)cn2)c(=O)[nH]c2ccnc(C#N)c12 [compound 157] |  |  |  | 26290 | 13100 | 0.62 |  |
| Cc1c(C2(C(=O)N[C@@H]3CCc4cc(C#N)cnc43)CC2)c(=O)[nH]c2ccc(F)cc12 (single isomer, unassigned) [compound 2503] | 100000 | 100000 | 100.00 |  |  |  |  |
| Cc1nc(C#N)cnc1[C@H](C)NC(=O)Cc1c(C)c2c(C)nccc2[nH]c1=O [compound 492] |  |  |  | 320 | 80 | 0.28 |  |
| Cc1nc(C#N)cnc1[C@@H](C)NC(=O)Cc1c(C)c2c(F)c(F)ccc2[nH]c1=O [compound 1139] | 140 | 140 | 0.03 |  |  |  |  |
| Cc1c(CC(=O)N[C@H](CO)c2ccc(C#N)cc2F)c(=O)[nH]c2cnnc(C#N)c12 [compound 175] |  |  |  | 100000 | 100000 | 100.00 |  |
| Cc1nccc2[nH]c(=O)c(CC(=O)N[C@@H](C)c3ccc(S(C)(=O)=O)cc3F)c(C)c12 (single isomer, unassigned) [compound 207] |  |  |  | 100000 | 100000 | 1.32 |  |
| Cc1c(C(F)(F)C(=O)N[C@H](C)c2nccc(C#N)n2)c(=O)[nH]c2ccc(F)cc12 (single isomer, unassigned) [compound 2527] | 100000 | 4730 |  |  |  |  | 100.00‡ μM |
| Cc1nccc2[nH]c(=O)c(CC(=O)N[C@@H](CO)c3ncc(C#N)cc3F)c(C)c12 (single isomer, unassigned) [compound 248] |  |  |  | 3010 | 860 | 0.17 |  |
| C[C@H](NC(=O)[C@H](C)c1cc2c(F)nccc2[nH]c1=O)c1ccc(F)cc1F (single isomer, unassigned) [compound 368] |  |  |  | 43640 | 1660 | 0.43 |  |
| Cc1c(CC(=O)N[C@H](C)c2ccc(C#N)cc2F)c(=O)[nH]c2ccnc(OC3CC3)c12 [compound 201] |  |  |  | 100000 | 100000 | 1.02 |  |
| Cc1c(CC(=O)N[C@@H](CO)c2ccc(C#N)cc2F)c(=O)[nH]c2ccc(C#N)nc12 [compound 221] |  |  |  | 45660 | 1120 | 2.27 |  |

| SMILES | Ventricular EC25 ([1]; Y75 value (no ‡ mark)) [nM] | Atrial EC25 ([2]; Y75 value (no ‡ mark)) [nM] | Skeletal EC25 ([3]; Y75 value (no ‡ mark)) [µM] | Ventricular EC25 ([1]; Y75 value) [nM] | Atrial EC25 [2, 4] [nM] | Skeletal EC25 ([3]; Y75 value) [µM] | Skeletal EC25 ([3]; ‡ Y125 value, not a Y75 value (125% activity relative to no compound)) |
| --- | --- | --- | --- | --- | --- | --- | --- |
| Cc1nccc2[nH]c(=O)c(CC(=O)N[C@H]3CCc4cc(F)cc(F)c43)c(C)c12 [compound 406] |  |  |  | 380 | 100 | 0.02 |  |
| Cc1c(CC(=O)N[C@H](C)c2ncc(F)cc2F)c(=O)[nH]c2ccc(C#N)nc12 (single isomer, unassigned) [compound 249] |  |  |  | 100000 | 100000 | 100.00 |  |
| Cc1c(CC(=O)N[C@H](C)c2cnc(C#N)nc2)c(=O)[nH]c2ccc(F)cc12 [compound 1100] | 2270 | 770 | 0.53 |  |  |  |  |
| Cc1c(C2(C(=O)N[C@H](C)c3ncc(C#N)cn3)CC2)c(=O)[nH]c2cccc(C#N)c12 (single isomer, unassigned) [compound 2543] | 4000 | 730 | 0.83 |  |  |  |  |
| C[C@H](NC(=O)Cc1c(C(F)(F)F)c2c(C3CC3)nccc2[nH]c1=O)c1ccc(C#N)nn1 (single isomer, unassigned) [compound 3004] |  |  |  | 100000 | 10040 | 5.99 |  |
| CCc1c(CC(=O)N[C@H](C)c2ncc(C#N)cn2)c(=O)[nH]c2ccc(F)c(C)c12 (single isomer, unassigned) [compound 2001] | 490 | 330 | 0.27 |  |  |  |  |
| Cc1c(CC(=O)N[C@@H](C)c2ccc(F)cc2F)c(=O)[nH]c2ccnc(N)c12 [compound 352] |  |  |  | 31620 | 2640 | 0.18 |  |
| Cc1c(C(F)(F)C(=O)N[C@H](C)c2cnc(C#N)cn2)c(=O)[nH]c2ccc(F)cc12 (single isomer, unassigned) [compound 4827] | 710 | 230 | 0.08 |  |  |  |  |
| Cc1nc(C#N)cnc1[C@H](C)NC(=O)Cc1c(C)c2nc(C(F)(F)F)ccc2[nH]c1=O (single isomer, unassigned) [compound 139] |  |  |  | 180 | 80 | 0.02 |  |
| Cc1nccc2[nH]c(=O)c(CC(=O)N[C@H]3COc4cccnc43)c(C)c12 (single isomer, unassigned) [compound 252] |  |  |  | 100000 | 100000 | 100.00 |  |
| Cc1nc(C#N)cnc1[C@@H](C)NC(=O)C(F)(F)c1c(C)c2c(C)nccc2[nH]c1=O (single isomer, unassigned) [compound 3503] |  |  |  | 5700 | 3500 | 0.89 |  |
| Cc1c(CC(=O)N[C@@H](C)c2ccc(C#N)cn2)c(=O)[nH]c2ccc(F)cc12 [compound 1128] | 700 | 520 | 0.09 |  |  |  |  |
| C[C@@H](NC(=O)Cc1c(C#N)c2cc(F)c(F)cc2[nH]c1=O)c1ccc(C#N)cn1 (single isomer, unassigned) [compound 2047] | 47780 | 25330 | 30.48 |  |  |  |  |
| Cc1cc(C#N)nnc1[C@H](C)NC(=O)Cc1c(C)c2c(C)nccc2[nH]c1=O [compound 490] |  |  |  | 100000 | 100000 | 45.80 |  |
| Cc1c(CC(=O)N[C@H](C)c2ccc(C#N)cn2)c(=O)[nH]c2ccnc(C(F)(F)F)c12 [compound 155] |  |  |  | 62810 | 6060 | 1.24 |  |
| Cc1nc(C#N)ncc1[C@@H](C)NC(=O)Cc1c(C)c2c(C)nccc2[nH]c1=O [compound 464] |  |  |  | 180 | 370 | 0.03 |  |
| Cc1c(CC(=O)N[C@@H]2COc3cc(F)cc(F)c32)c(=O)[nH]c2ccnc(C#N)c12 (single isomer, unassigned) [compound 273] |  |  |  | 4080 | 2500 | 0.97 |  |
| C[C@H](NC(=O)[C@@H](C)c1cc2c(Cl)c(O)ccc2[nH]c1=O)c1ccc(F)cc1F (single isomer, unassigned) [compound 88] | 88390 | 83970 | 74.46 |  |  |  |  |
| Cc1c(CC(=O)N[C@@H](C)c2ccc(F)cc2F)c(=O)[nH]c2ccnc(I)c12 [compound 353] |  |  |  | 310 | 140 | 0.06 |  |
